Assay results as given in ChEMBL document CHEMBL5346934 (J Med Chem, 2023).
pEC50, pIC50: −log10 of the molar value. ≈ marks a conversion by molar mass, not a printed value.

Tests used:
Vaccinia virus [1] = test: Antiviral activity against Vaccinia virus infected in human HEL cells; assay type: functional, organism-based; details: Orthopoxvirus vaccinia
HEL = test: Cytotoxicity against human HEL cells assessed as reduction in cell growth; assay type: functional
Vaccinia virus [2] = test: Antiviral activity against Vaccinia virus infected in African green monkey Vero cells assessed as reduction virus induced cytopathic effect incubated for 24 hrs by MTT assay; assay type: functional, organism-based; details: Orthopoxvirus vaccinia
Ectromelia virus = test: Antiviral activity against ectromelia virus K-1 infected in Vero cells measured after 4 days by colorimetric assay; assay type: functional, organism-based; details: K-1, Vero, 96 h
Monkeypox virus [3] = test: Antiviral activity against Monkeypox virus V79-1-005 infected in Vero cells measured after 4 days by colorimetric assay; assay type: functional, organism-based; details: V79-1-005, Vero, 96 h
Vaccinia virus [4] = test: Antiviral activity against Vaccinia virus infected in Vero cells measured after 4 days by colorimetric assay; assay type: functional, organism-based; details: Orthopoxvirus vaccinia, 96 h
Vaccinia virus [5] = test: Antiviral activity against Vaccinia virus Copenhagen infected in African green monkey Vero cells measured after 4 days by colorimetric assay; assay type: functional, organism-based; details: Orthopoxvirus vaccinia, 96 h
Cowpox virus [6] = test: Antiviral activity against Cowpox virus Grishak infected in African green monkey Vero cells measured after 4 days by colorimetric assay; assay type: functional, organism-based; details: 96 h
Vaccinia virus [7] = test: Antiviral activity against Vaccinia virus infected in African green monkey BSC-1 cells; assay type: functional, organism-based, Orthopoxvirus vaccinia
Vaccinia virus [8] = test: Antiviral activity against Vaccinia virus VG9 infected in African green monkey BSC-1 cells; assay type: functional, organism-based, Orthopoxvirus vaccinia
Cowpox virus [9] = test: Antiviral activity against Cowpox virus infected in Vero cells measured after 4 days by colorimetric assay; assay type: functional, organism-based; details: 96 h
Vaccinia virus [10] = test: Antiviral activity against Vaccinia virus Copenhagen infected in human HFF cells assessed as assessed as reduction in virus-induced cytopathic effect incubated for 7 days by microscopic analysis; assay type: functional, organism-based; details: Orthopoxvirus vaccinia, 168 h
Variola virus [11] = test: Antiviral activity against Variola virus 7124 infected in monkey LLC-MK2 cells; assay type: functional, organism-based; details: Variola virus, 7124, LLC-MK2
Vaccinia virus [12] = test: Antiviral activity against Vaccinia virus Copenhagen infected in HFF cells measured after 3 days by colorimetric assay; assay type: functional, organism-based; details: Orthopoxvirus vaccinia, 72 h
Cowpox virus [13] = test: Antiviral activity against Cowpox virus Brighton infected in Vero cells measured after 4 days by colorimetric assay; assay type: functional, organism-based; details: 96 h
Monkeypox virus [14] = test: Antiviral activity against Monkeypox virus Zr-599 infected in African green monkey Vero E6 cells assessed as reduction in plaque formation measured after 72 hrs by microscopic analysis; assay type: functional, organism-based; details: Zr-599, Vero C1008, 72 h
Vaccinia virus [15] = test: Antiviral activity against Vaccinia virus infected in human HFF cells; assay type: functional, organism-based; details: Orthopoxvirus vaccinia
Human alphaherpesvirus 2 = test: Antiviral activity against Herpes simplex virus 2; assay type: functional, organism-based
Variola virus [16] = test: Antiviral activity against Variola virus 7124 infected in African green monkey BSC-1 cells; assay type: functional, organism-based; details: Variola virus, 7124, BSC-1
Vaccinia virus [17] = test: Antiviral activity against Vaccinia virus Copenhagen infected in human HFF cells assessed as reduction in viral replication measured after 3 days; assay type: functional, organism-based; details: Orthopoxvirus vaccinia, 72 h
Vaccinia virus [18] = test: Antiviral activity against Cowpox virus Brighton infected in human HFF cells assessed as reduction in viral replication measured after 3 days; assay type: functional, organism-based; details: Orthopoxvirus vaccinia, 72 h
Vaccinia virus [19] = test: Antiviral activity against Vaccinia virus infected in human HFF cells measured after 4 days by colorimetric assay; assay type: functional, organism-based; details: Orthopoxvirus vaccinia, 96 h
[20] = Orthopoxvirus vaccinia, VG9, BSC-1

How did the pIC50 (Vaccinia virus [1]) turn out when `O=C1N(Nc2ccc(Cl)cc2)C(=O)C23C4C=CC5C4C4C(C=CC42)C153` was run?
The pIC50 was 5.08.

And the CC50 (HEL)?
The CC50 was greater than 100 µM.

`CC(=O)C1=C2C=CCCN2C(=O)NC1c1ccccc1` (stereo not given) was tested. Which pIC50 (Vaccinia virus [2]) did it give?
The pIC50 was 5.23.

Which EC50 (Ectromelia virus) does the source give for `O=C(NNC(=O)C1C2C=CC(C3CC23)C1C(=O)O)c1ccccc1O` (stereo not given) here?
The EC50 was 0.54 mg/L (≈ 1.58 µM).

And the EC50 (Monkeypox virus [3])?
The EC50 was 0.153 mg/L (≈ 0.447 µM).

What about the EC50 (Vaccinia virus [4]) of the same compound?
The EC50 was 0.032 mg/L (≈ 0.0935 µM).

What does the source list for `CC1(C)[C@@H]2CC[C@@]1(C)[C@@H](NC(=O)c1ccc(Cl)cc1)C2`?
pIC50 (Ectromelia virus): 6.22; pIC50 (Vaccinia virus [5]): 6.62; pIC50 (Cowpox virus [6]): 5.62

What does the source list for `C#C[C@]1(OC(=O)CCCCCC)CC[C@H]2[C@@H]3CCC4=CC(=O)CC[C@@H]4[C@H]3CC[C@@H]21`?
pEC50 (Vaccinia virus [7]; Orthopoxvirus vaccinia, BSC-1): 5.41; pEC50 (Vaccinia virus [8]; [20]): 5.57

With `CC(=O)C1=C2C=CCCN2C(=O)NC1c1ccccc1Br` (stereo not given) as the compound, how does the pIC50 (Vaccinia virus [2]) read?
Its pIC50 is 6.52.

Which results are given for `O=C1N(Nc2ccc(Br)c(Cl)c2)C(=O)C23C4C=CC5C4C4C(C=CC42)C153`?
pIC50 (Vaccinia virus [1]): 6.22; CC50 (HEL): > 100 µM

With `CC(=O)OCC(COC(C)=O)OCn1cnc2c(N)ncnc21` as the compound, how does the pEC50 (Cowpox virus [9]) read?
Its pEC50 is 5.70.

How did the pIC50 (Vaccinia virus [1]) turn out when `Cc1cc(NN2C(=O)C34C5C=CC6C5C5C3C=CC5C64C2=O)ccc1[N+](=O)[O-]` was run?
Its pIC50 is 5.52.

And the CC50 (HEL)?
Its CC50 is greater than 100 µM.

`CCCCCCCCCCCCCCCCCCOCCOP1(=O)COCC(Cn2ccc(N)nc2=O)O1` (stereo not given) was tested. Which pEC50 (Vaccinia virus [2]) did it give?
Its pEC50 is 5.96.

`CCCCCCCCCCCCCCCCOCCCOP1(=O)COCC(Cn2ccc(N)nc2=O)O1` (stereo not given) was tested. Which pEC50 (Vaccinia virus [2]) did it give?
The pEC50 was 5.42.

Which results are given for `O=C1N(Nc2ccc(C(F)(F)F)cc2)C(=O)C23C4C=CC5C4C4C(C=CC42)C153`?
pIC50 (Vaccinia virus [1]): 5.92; CC50 (HEL): > 100 µM

How did the pEC50 (Vaccinia virus [10]) turn out when `Cc1ccnc(NC(c2ccccc2F)c2ccc3cccnc3c2O)c1` (stereo not given) was run?
Its pEC50 is 5.54.

How did the pEC50 (Variola virus [11]) turn out when `Nc1ccn([C@@H]2C=C(CO)[C@@H](O)[C@H]2O)c(=O)n1` was run?
The pEC50 was 7.52.

`Cc1cn([C@H]2C[C@H](O)[C@]3(CO)C[C@H]23)c(=O)[nH]c1=O` [(NORTH)-METHANOCARBATHYMIDINE] was tested. Which pIC50 (Vaccinia virus [12]) did it give?
The pIC50 was 6.26.

And the pIC50 (Cowpox virus [13])?
Its pIC50 is 5.82.

`O=C1C(O)=C([C@H]2CC[C@H](c3ccc(Cl)cc3)CC2)C(=O)c2ccccc21` [ATOVAQUONE] was tested. Which pEC50 (Monkeypox virus [14]) did it give?
Its pEC50 is 6.28.

`CCCCCCCCCCCCCCCCOCCCOP(=O)(O)CO[C@H](CO)Cn1ccc(N)nc1=O` [BRINCIDOFOVIR] was tested. Which pEC50 (Cowpox virus [13]) did it give?
Its pEC50 is 6.22.

What does the source list for `Cc1cc(C2CCCCC2)n(O)c(=O)c1` [CICLOPIROX]?
pEC50 (Vaccinia virus [7]; Orthopoxvirus vaccinia, BSC-1): 5.24; pEC50 (Vaccinia virus [8]; [20]): 5.16

`Nc1ccn(C[C@@H](CO)OCP(=O)(O)O)c(=O)n1` [CIDOFOVIR ANHYDROUS] was tested. Which pEC50 (Vaccinia virus [2]) did it give?
The pEC50 was 4.34.

What about the pEC50 (Cowpox virus [9]) of the same compound?
The pEC50 was 4.35.

How did the pIC50 (Vaccinia virus [15]) turn out when `Oc1ccc(Cl)cc1Sc1cc(Cl)ccc1O` [FENTICLOR] was run?
Its pIC50 is 5.24.

What about the pIC50 (Human alphaherpesvirus 2) of the same compound?
Its pIC50 is 5.62.

How did the pEC50 (Variola virus [16]) turn out when `O[C@H]1[C@H]2c3cc4c(cc3CN3CCC(=C[C@@H]1O)[C@H]23)OCO4` [LYCORINE] was run?
The pEC50 was 5.30.

`COC(=O)Nc1nc2cc(C(=O)c3ccccc3)ccc2[nH]1` [MEBENDAZOLE] was tested. Which pEC50 (Vaccinia virus [7]; Orthopoxvirus vaccinia, BSC-1) did it give?
The pEC50 was 5.25.

And the pEC50 (Vaccinia virus [8]; [20])?
The pEC50 was 5.04.

With `OC(c1cc(C(F)(F)F)nc2c(C(F)(F)F)cccc12)C1CCCCN1` (stereo not given) [MEFLOQUINE] as the compound, how does the pEC50 (Monkeypox virus [14]) read?
The pEC50 was 5.28.

`CN1C(=O)/C(=N\NC(N)=S)c2ccccc21` [METHISAZONE] was tested. Which pEC50 (Vaccinia virus [17]) did it give?
The pEC50 was 5.48.

And the pEC50 (Vaccinia virus [18])?
The pEC50 was 4.85.

Which results are given for `CN(Cc1cnc2nc(N)nc(N)c2n1)c1ccc(C(=O)N[C@@H](CCC(=O)O)C(=O)O)cc1` [METHOTREXATE]?
pEC50 (Vaccinia virus [7]; Orthopoxvirus vaccinia, BSC-1): 5.66; pEC50 (Vaccinia virus [8]; [20]): 5.21

How did the pEC50 (Monkeypox virus [14]) turn out when `CC(C)C(=O)OC[C@H]1O[C@@H](n2cc/c(=N\O)[nH]c2=O)[C@H](O)[C@@H]1O` [MOLNUPIRAVIR] was run?
The pEC50 was 5.87.

With `COc1c(C)c2c(c(O)c1C/C=C(\C)CCC(=O)OCCN1CCOCC1)C(=O)OC2` [MYCOPHENOLATE MOFETIL] as the compound, how does the pEC50 (Vaccinia virus [7]; Orthopoxvirus vaccinia, BSC-1) read?
The pEC50 was 6.70.

And the pEC50 (Vaccinia virus [8]; [20])?
Its pEC50 is 7.00.

`Nc1ncnc2c1ncn2[C@@H]1C=C(CO)[C@@H](O)[C@H]1O` [NEOPLANOCIN A] was tested. Which pEC50 (Variola virus [11]) did it give?
The pEC50 was 7.00.

How did the IC50 (Vaccinia virus [15]) turn out when `CO[C@H]1/C=C/O[C@@]2(C)Oc3c(C)c(O)c4c(O)c(c(/C=N/N5CCN(C)CC5)c(O)c4c3C2=O)NC(=O)/C(C)=C\C=C\[C@H](C)[C@H](O)[C@@H](C)[C@@H](O)[C@@H](C)[C@H](OC(C)=O)[C@@H]1C` [RIFAMPIN] was run?
Its IC50 is roughly 100 mg/L.

`N#CC1(c2ccc(NC(=O)c3cccnc3NCc3ccncc3)cc2)CCCC1` [RIVOCERANIB] was tested. Which pEC50 (Vaccinia virus [7]; Orthopoxvirus vaccinia, BSC-1) did it give?
The pEC50 was 5.60.

And the pEC50 (Vaccinia virus [8]; [20])?
Its pEC50 is 5.57.

How did the pEC50 (Vaccinia virus [19]) turn out when `NC(=O)c1cn([C@@H]2O[C@H](CO)[C@@H](O)[C@H]2O)c2ncnc(N)c12` [SANGIVAMYCIN] was run?
The pEC50 was 7.19.

Which results are given for `COc1ccc(/C=C/C(=O)Nc2ccccc2C(=O)O)cc1OC` [TRANILAST]?
pEC50 (Vaccinia virus [7]; Orthopoxvirus vaccinia, BSC-1): 6.05; pEC50 (Vaccinia virus [8]; [20]): 6.10

`CCOC(=O)c1c(CSc2ccccc2)n(C)c2cc(Br)c(O)c(CN(C)C)c12` [UMIFENOVIR] was tested. Which pEC50 (Vaccinia virus [7]; Orthopoxvirus vaccinia, BSC-1) did it give?
The pEC50 was 5.18.

And the pEC50 (Vaccinia virus [8]; [20])?
The pEC50 was 5.01.

How did the pEC50 (Vaccinia virus [7]; bsc-1) turn out when RAUWOLFIA SERPENTINA was run?
Its pEC50 is 5.04.

What about the pEC50 (Vaccinia virus [8]; bsc-1) of the same compound?
Its pEC50 is 5.01.
